We go through 8 compounds from ChEMBL document CHEMBL5465560, “Selectivity Literature for EUbOPEN Chemogenomic Library” (2024).

In assay [1] the target is Potassium voltage-gated channel subfamily A member 5 (Homo sapiens) (UniProt P22460). Put plainly: Selectivity interaction (Panel of kinases, GPCRs, ion channels and transporters (enzymatic assay)) EUB0000266bCl KCNA5.
Assay [2] deals with Ribosomal protein S6 kinase alpha-1 (Homo sapiens, UniProt Q15418). The conditions noted are these: at 10 µM.
Assay [3] addresses Cyclin-dependent kinase 2 (Homo sapiens, UniProt P24941). Put plainly: Selectivity interaction (Ambit KINOMEscan and KiNATiv profiling in Jurkat cells) EUB0000090b CDK2. Format: cell-based. The conditions noted are these: at 1 µM.
The target in assay [4] is MAP kinase-interacting serine/threonine-protein kinase 2 (Homo sapiens, UniProt Q9HBH9). Briefly: Selectivity interaction (KinomeScan (DiscoverX)) EUB0001079a MKNK2. Conditions: at 1 µM.
The target of assay [5] is T1, Protein kinase C iota type (Homo sapiens) (UniProt P41743).
T1 sequence (whole entry): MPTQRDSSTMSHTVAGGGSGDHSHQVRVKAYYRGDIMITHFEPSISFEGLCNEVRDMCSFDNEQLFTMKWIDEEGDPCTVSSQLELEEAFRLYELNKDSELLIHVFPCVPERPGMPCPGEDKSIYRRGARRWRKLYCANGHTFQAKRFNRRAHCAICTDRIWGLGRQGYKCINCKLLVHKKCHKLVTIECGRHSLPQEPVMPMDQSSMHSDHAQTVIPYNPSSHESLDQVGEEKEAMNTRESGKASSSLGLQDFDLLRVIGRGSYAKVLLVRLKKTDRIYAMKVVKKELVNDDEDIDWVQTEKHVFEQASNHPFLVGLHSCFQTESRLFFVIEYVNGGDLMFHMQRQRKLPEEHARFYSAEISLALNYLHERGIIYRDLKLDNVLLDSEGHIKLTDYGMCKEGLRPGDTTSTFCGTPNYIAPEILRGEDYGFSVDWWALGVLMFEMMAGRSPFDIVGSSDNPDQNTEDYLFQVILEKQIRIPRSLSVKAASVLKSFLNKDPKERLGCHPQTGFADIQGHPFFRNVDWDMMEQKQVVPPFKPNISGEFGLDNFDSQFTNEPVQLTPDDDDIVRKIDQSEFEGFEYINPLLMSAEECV
Put plainly: Selectivity interaction (KinomeScan (DiscoverX)) EUB0001079a PRKCI. Conditions: at 1 µM.

The target in assay [6] is Serine/threonine-protein kinase 32C (Homo sapiens) (UniProt Q86UX6). Put plainly: Selectivity interaction (KinomeScan (DiscoverX)) EUB0000092b STK32C. The conditions noted are these: at 10 µM.
In assay [7] the target is T2, Ephrin type-B receptor 3 (Homo sapiens) (UniProt P54753).
T2 sequence (whole entry): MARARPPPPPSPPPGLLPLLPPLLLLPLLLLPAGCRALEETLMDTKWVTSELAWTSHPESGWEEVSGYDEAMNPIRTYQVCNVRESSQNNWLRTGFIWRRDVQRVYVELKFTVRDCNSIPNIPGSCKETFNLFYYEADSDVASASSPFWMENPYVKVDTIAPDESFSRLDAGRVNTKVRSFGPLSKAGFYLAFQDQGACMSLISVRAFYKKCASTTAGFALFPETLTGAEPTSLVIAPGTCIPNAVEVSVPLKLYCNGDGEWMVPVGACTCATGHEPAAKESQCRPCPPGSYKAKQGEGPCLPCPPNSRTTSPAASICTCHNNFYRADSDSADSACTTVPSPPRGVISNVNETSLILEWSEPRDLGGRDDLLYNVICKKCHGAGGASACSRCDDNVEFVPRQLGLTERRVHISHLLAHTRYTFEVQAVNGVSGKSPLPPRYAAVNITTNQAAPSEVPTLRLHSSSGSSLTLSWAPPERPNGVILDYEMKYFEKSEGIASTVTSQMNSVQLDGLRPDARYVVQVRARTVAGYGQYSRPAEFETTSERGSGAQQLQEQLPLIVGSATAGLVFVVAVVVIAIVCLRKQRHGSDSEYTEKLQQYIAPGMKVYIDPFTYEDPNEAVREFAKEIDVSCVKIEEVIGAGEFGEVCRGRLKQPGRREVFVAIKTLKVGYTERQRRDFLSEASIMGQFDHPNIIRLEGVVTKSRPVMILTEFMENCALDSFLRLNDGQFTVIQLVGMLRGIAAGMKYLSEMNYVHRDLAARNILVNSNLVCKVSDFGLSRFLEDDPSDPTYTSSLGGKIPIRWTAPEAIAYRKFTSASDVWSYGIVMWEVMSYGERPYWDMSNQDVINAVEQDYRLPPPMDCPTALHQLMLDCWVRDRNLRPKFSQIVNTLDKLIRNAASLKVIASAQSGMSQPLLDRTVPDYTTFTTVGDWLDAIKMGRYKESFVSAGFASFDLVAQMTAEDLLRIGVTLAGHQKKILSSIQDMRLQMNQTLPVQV
Put plainly: Selectivity interaction (KinomeScan (DiscoverX)) EUB0000655a EPHB3. Conditions: at 10 µM.

Assay [8] has as its target Serine/threonine-protein kinase Nek7 (Homo sapiens) (UniProt Q8TDX7). Briefly: Selectivity interaction (ActivX KiNativ screen (kinase selectivity in THP-1 cell lysates)) EUB0000639a NEK7. The class given is subcellular. The conditions noted are these: lysate.
For assay [9], the target named is T3, Serine/threonine-protein kinase Sgk3 (Homo sapiens) (UniProt Q96BR1).
T3 sequence (whole entry): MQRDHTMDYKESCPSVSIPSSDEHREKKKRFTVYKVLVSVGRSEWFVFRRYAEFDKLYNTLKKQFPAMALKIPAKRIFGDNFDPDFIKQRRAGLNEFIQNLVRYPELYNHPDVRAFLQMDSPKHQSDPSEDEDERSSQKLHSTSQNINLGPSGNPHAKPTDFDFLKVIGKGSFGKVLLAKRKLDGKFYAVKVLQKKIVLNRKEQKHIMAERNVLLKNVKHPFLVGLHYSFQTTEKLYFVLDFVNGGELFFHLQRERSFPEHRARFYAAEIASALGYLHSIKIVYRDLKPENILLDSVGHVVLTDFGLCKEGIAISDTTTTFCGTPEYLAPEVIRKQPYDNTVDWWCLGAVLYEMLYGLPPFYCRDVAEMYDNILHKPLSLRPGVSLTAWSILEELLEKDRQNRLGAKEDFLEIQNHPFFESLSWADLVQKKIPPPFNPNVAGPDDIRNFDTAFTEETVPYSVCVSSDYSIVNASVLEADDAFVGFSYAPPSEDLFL
Briefly: Selectivity interaction (Kinase panel (Invitrogen)) EUB0000639a SGK3. The conditions noted are these: at 200 nM.

Assay [10] has as its target Serine/threonine-protein kinase WNK1 (Homo sapiens) (UniProt Q9H4A3). Briefly: Selectivity interaction (Kinase panel (KiNativ target engagement assay in Jurkat cells)) EUB0001635a WNK1. Format: cell-based. Conditions: at 1 µM.

Chain of Serine/threonine-protein kinase Nek7 (Homo sapiens) (Q8TDX7 whole entry, looked up): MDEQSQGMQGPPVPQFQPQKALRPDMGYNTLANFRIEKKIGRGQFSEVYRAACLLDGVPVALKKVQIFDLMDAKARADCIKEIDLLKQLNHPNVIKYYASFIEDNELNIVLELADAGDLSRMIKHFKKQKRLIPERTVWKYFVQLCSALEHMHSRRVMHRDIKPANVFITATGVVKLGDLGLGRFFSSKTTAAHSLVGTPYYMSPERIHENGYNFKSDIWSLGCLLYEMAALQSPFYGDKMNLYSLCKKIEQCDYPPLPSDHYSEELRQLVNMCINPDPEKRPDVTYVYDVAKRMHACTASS
Chain of Ribosomal protein S6 kinase alpha-1 (Q15418 whole entry): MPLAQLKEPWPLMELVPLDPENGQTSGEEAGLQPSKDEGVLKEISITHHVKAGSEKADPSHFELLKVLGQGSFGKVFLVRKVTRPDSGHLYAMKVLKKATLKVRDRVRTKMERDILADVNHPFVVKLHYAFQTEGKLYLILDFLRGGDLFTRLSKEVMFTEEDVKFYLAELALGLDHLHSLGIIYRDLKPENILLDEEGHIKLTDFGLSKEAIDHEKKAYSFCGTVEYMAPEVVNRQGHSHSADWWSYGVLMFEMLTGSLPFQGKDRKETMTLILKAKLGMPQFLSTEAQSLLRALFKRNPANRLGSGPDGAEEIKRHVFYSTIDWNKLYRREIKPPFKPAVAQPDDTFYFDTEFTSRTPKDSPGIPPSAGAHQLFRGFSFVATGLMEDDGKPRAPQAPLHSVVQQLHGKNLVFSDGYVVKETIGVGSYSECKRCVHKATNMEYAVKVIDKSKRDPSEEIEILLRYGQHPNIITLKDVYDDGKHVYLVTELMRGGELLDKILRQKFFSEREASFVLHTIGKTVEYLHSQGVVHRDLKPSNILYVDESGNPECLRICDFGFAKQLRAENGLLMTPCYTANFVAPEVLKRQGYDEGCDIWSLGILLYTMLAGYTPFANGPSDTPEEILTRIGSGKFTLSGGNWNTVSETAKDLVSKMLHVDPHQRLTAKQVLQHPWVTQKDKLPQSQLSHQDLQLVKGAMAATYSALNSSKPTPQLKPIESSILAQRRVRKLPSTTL
Chain of Serine/threonine-protein kinase WNK1 (Homo sapiens) (Q9H4A3 whole entry, looked up): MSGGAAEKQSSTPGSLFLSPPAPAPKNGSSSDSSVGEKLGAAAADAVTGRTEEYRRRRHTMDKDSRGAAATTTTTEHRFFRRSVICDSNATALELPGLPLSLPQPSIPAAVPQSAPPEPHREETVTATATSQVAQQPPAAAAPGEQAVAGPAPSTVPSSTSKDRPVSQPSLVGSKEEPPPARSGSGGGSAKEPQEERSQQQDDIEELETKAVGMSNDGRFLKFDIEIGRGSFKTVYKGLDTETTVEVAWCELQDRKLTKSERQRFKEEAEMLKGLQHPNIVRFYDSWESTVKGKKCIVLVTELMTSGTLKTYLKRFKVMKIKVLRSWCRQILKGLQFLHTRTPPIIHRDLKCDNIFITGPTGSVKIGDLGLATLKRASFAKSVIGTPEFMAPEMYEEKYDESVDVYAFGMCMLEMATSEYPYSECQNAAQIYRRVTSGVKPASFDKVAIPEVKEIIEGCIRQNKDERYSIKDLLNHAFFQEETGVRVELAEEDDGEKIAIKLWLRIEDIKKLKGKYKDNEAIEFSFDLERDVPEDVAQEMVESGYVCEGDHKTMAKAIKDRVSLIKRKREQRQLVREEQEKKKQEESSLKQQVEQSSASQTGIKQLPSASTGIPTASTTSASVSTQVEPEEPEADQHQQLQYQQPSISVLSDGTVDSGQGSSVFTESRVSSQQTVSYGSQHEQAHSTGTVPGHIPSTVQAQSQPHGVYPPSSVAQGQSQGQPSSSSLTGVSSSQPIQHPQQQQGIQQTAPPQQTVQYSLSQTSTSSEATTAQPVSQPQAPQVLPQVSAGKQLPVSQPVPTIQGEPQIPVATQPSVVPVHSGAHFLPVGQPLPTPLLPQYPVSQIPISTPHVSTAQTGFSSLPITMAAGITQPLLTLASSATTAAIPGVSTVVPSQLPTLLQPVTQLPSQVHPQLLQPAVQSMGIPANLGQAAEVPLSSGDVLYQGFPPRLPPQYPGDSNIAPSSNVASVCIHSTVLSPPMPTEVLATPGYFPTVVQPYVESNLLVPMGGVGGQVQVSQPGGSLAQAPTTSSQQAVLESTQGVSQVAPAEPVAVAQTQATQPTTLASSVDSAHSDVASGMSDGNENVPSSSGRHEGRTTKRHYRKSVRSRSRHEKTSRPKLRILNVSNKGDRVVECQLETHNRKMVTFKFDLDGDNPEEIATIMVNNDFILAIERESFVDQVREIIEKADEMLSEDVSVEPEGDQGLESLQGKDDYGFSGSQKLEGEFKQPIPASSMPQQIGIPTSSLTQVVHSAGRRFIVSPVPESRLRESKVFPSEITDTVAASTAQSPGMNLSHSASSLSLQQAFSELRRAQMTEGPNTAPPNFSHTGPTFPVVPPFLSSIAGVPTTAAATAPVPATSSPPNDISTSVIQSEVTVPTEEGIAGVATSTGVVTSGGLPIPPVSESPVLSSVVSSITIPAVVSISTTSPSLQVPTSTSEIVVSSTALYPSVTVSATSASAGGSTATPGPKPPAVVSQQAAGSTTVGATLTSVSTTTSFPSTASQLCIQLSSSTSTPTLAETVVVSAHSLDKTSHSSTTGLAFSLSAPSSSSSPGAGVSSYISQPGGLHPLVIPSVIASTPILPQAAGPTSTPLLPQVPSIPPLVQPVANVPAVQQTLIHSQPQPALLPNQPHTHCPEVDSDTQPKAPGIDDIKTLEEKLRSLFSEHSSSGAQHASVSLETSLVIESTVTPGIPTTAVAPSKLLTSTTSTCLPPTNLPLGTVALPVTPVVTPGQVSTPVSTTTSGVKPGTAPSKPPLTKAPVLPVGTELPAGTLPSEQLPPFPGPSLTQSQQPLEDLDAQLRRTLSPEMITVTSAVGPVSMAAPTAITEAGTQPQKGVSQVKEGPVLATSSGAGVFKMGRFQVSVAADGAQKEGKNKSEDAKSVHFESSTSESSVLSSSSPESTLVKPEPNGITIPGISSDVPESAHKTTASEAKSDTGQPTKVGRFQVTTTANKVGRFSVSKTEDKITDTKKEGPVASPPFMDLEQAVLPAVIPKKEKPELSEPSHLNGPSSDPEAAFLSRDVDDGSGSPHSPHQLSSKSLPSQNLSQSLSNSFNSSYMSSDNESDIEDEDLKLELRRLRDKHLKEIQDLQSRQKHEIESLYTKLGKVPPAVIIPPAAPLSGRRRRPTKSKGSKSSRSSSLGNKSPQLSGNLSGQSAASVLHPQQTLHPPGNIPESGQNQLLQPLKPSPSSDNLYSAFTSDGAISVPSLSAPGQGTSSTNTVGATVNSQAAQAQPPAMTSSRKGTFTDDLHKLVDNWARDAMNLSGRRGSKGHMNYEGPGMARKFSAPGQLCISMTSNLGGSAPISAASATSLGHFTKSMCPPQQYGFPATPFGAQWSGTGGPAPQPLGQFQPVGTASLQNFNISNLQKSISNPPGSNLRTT
Chain of Serine/threonine-protein kinase 32C (Homo sapiens) (Q86UX6 whole entry): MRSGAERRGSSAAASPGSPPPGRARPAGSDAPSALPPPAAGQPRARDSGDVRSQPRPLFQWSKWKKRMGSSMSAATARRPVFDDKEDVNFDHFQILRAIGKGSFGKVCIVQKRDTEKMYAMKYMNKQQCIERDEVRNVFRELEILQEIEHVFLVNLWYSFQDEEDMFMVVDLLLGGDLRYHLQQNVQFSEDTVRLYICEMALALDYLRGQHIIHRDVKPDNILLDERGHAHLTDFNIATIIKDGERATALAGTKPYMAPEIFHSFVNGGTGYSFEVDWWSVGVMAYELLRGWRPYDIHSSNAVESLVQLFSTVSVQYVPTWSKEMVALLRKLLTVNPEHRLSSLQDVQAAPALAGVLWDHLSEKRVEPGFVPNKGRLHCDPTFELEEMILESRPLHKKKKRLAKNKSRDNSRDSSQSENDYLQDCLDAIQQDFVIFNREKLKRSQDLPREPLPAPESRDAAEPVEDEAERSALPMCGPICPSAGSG
Chain of MAP kinase-interacting serine/threonine-protein kinase 2 (Q9HBH9 whole entry, looked up): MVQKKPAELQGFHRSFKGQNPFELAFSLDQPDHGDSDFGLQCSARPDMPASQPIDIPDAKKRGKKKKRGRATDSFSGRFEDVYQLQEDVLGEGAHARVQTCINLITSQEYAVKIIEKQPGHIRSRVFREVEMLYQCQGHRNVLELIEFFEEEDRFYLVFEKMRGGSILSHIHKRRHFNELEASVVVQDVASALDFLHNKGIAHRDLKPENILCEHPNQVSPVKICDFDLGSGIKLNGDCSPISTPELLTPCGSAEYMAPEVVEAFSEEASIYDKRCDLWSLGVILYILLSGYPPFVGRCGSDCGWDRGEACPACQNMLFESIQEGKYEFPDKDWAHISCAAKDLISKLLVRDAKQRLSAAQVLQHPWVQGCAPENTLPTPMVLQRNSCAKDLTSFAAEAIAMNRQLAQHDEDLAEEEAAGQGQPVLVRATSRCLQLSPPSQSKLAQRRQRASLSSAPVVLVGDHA
Chain of Potassium voltage-gated channel subfamily A member 5 (Homo sapiens) (P22460 whole entry): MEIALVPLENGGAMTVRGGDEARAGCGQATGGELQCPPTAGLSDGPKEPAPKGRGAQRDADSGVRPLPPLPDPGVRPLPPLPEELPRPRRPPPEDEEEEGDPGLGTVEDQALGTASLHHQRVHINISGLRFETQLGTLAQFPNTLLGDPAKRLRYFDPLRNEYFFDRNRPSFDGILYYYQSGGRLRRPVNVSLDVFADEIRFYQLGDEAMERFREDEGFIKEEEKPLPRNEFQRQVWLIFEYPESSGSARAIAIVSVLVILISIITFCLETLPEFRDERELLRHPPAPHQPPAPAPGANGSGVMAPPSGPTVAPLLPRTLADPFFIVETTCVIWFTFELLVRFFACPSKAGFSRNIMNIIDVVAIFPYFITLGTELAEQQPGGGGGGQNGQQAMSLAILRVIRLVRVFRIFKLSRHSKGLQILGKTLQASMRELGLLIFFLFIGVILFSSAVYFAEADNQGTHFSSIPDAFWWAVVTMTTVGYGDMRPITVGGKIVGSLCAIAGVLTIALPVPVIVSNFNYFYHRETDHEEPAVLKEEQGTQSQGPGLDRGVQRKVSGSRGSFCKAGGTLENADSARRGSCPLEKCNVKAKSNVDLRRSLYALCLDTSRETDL

Regarding `CCn1c(-c2nc3cc(C(=O)N4CCCC(N)C4)ccc3n2C)cc2ccccc21` (centres undefined), the pXC50 in assay [1] was less than 4.3 M.

The compound `Cc1cc([C@@H](C)Nc2ccccc2C(=O)O)c2nc(N3CCOCC3)cc(=O)n2c1` [AZD-6482] gave a % of control in [2] of 73%.

The compound `CN(C)C/C=C/C(=O)Nc1ccc(C(=O)N2CCCC(Nc3ncc(Cl)c(-c4c[nH]c5ccccc45)n3)C2)cc1` (centres undefined) gave a % of control in [3] of 72%.

With `Nc1cnc(N2CCc3cc(S(=O)(=O)Nc4c(F)cc(Cl)cc4F)cc(N4CCCC4=O)c32)nc1` [TP-020n], the % of control in [4] and in assay [5] was 100% throughout.

For the compound `CCC(=O)N1CCN(c2ccc(-n3c(=O)ccc4cnc5ccc(-c6cnc7ccccc7c6)cc5c43)cc2C(F)(F)F)CC1`, the % of control in [6] is 100%.

`CN(C)CCOc1ccc(-c2nc(-c3ccncc3)c(-c3ccc4c(c3)CC/C4=N\O)[nH]2)cc1` registered a % of control in assay [7] of 100%.

Regarding `CC[C@@H]1[C@H](F)C(=O)N[C@@H]1COc1nccc2cc(C(N)=O)c(OC)cc12` [ZIMLOVISERTIB], the % of inhibition in [8] (at 0.01 µM) was -4%; in assay [8] (at 0.04 µM) it was -1.1%; in assay [8] (at 0.2 µM) it was -1.6%; in assay [8] (at 1 µM), 10.8%; in assay [8] (at 5 µM), -20%; in assay [9] it was 1.19%.

Take `C=CC(=O)Nc1ccc(C(=O)Nc2[nH]nc3c2CN(C(=O)N[C@H](CN(C)C)c2ccccc2)C3(C)C)cc1`: the % of engagement in assay [10] is -16.1%.
